{"source": "ChEMBL document CHEMBL1201862", "about": "“PubChem BioAssay data set” (2004)", "key": {"[1]": {"target": "T1, Lysine-specific demethylase 4C (Homo sapiens, UniProt Q9H3R0)", "T1 sequence (Q9H3R0 whole entry)": "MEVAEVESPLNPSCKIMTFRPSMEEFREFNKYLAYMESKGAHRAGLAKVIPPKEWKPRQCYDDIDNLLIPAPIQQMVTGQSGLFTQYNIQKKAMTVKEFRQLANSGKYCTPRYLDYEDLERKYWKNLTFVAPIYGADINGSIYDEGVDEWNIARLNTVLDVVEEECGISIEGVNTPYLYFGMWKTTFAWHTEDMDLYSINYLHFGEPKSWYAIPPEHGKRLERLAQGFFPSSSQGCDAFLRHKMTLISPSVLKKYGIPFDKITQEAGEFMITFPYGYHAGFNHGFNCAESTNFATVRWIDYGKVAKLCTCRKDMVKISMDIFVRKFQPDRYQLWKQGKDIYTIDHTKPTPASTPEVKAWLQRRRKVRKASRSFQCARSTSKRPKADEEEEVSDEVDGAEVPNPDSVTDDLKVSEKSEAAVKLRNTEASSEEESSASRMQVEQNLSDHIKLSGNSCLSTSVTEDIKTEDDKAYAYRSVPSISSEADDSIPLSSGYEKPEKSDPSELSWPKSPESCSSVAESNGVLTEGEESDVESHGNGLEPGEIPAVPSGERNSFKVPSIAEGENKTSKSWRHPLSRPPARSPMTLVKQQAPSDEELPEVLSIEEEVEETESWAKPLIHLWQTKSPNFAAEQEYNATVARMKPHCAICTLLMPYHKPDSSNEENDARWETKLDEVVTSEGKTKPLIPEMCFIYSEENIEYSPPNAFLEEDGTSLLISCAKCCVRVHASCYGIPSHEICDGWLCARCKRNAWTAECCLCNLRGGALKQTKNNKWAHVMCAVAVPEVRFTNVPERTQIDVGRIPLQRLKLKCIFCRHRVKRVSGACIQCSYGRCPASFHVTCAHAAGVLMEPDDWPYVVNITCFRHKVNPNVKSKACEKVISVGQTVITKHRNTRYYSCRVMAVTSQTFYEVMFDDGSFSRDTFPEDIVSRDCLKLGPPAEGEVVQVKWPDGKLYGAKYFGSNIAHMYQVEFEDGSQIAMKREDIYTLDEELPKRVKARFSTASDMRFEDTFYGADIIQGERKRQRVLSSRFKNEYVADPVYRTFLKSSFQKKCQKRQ", "test": "inhibition of JMJD2C H3K9me3 demethylation – biochemical, DELFIA europium, cherry-picked samples, dose response (AID 488835)", "assay_type": "functional"}, "[2]": {"target": "MAP/microtubule affinity-regulating kinase 3 (Homo sapiens, UniProt P27448)", "sequence (P27448 whole entry)": "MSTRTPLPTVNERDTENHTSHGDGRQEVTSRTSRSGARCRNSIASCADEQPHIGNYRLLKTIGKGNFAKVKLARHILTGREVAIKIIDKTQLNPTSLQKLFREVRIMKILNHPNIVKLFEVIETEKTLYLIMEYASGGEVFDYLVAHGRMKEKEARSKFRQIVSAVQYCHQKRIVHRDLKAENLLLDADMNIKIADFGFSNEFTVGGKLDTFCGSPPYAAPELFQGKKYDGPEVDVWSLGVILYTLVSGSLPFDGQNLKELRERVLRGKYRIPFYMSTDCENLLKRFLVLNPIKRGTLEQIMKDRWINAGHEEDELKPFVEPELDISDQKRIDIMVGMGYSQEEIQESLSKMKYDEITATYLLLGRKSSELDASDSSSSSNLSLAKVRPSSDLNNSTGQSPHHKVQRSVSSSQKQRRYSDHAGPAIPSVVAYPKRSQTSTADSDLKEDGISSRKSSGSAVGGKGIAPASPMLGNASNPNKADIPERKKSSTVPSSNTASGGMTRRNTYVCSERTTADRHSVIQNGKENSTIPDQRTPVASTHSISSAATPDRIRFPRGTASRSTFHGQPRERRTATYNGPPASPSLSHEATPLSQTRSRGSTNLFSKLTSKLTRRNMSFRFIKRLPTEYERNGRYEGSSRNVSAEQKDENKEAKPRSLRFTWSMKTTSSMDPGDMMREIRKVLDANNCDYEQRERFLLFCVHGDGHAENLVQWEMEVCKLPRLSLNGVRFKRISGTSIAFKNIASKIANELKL", "assay_type": "functional"}, "[3]": {"test": "off-target signal loss in HeLa-CEM21 co-culture – HeLa F-luc CTL cells, cherry-picked, counter-screen for HIV-1 Env fusion inhibitor project, dose response (AID 652040);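 further: potency for signal decrease marking cytotoxic or nonspecific inhibition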", "assay_type": "functional, cell-based"}, "[4]": {"test": "HIV-1 AD8 envelope cell-cell fusion blockers – cherry-pick, dose response (AID 652062);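 further: luciferase signal from cell-cell fusion driven by HIV-1 clade B AD8 Env; potency is for inhibitors of fusion seen as a drop in luminescence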", "assay_type": "functional, cell-based"}, "Streptococcus": {"test_system": "Streptococcus", "test": "GAS UMAA2166 growth inhibition – luminescence, BacTiterGlo, counter-screen for streptokinase expression inhibitor project, dose response (AID 1915);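 further: potency for reduction of bacterial viability or growth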", "assay_type": "functional, organism-based"}, "[5]": {"target": "Heat shock protein HSP 90-alpha (Homo sapiens, UniProt P07900)", "test": "Luminescence-based dose response biochemical high throughput screening assay for inhibitors of the Heat Shock Protein 90 (HSP90). [Related pubchem assays: 1831 (Summary AID.), 1846 (Confirmation screen.), 1789 (Primary screen.)]"}, "[6]": {"target": "T2, Heat shock factor protein 1 (Mus musculus, UniProt P38532)", "T2 sequence (P38532 whole entry)": "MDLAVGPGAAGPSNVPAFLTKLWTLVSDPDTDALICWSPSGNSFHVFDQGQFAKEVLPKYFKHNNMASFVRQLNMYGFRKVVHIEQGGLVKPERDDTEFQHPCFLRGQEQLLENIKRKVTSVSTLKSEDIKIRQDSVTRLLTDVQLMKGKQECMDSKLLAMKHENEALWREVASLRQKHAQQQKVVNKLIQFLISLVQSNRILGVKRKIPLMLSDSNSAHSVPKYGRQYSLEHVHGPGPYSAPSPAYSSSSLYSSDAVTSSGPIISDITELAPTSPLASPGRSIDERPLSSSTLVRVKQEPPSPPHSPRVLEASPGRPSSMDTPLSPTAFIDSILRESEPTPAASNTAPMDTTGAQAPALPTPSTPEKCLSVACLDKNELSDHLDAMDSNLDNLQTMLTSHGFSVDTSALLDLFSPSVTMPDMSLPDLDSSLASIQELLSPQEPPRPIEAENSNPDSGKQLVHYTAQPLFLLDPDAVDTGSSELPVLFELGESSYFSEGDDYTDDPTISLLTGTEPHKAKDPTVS", "test": "decrease of HSF1-responsive luciferase luminescence – cell-based, NIH3T3, dose retest, confirmation (AID 2382);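 further: NIH3T3 fibroblasts with HSF1-driven luciferase reporter stressed by proteasome inhibitor MG132; luminescence from HSF1-driven luciferase expression after 8 hours of MG132 stress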", "assay_type": "functional"}, "Genome polyprotein": {"target": "Genome polyprotein (dengue virus type 2, UniProt P29990)", "sequence (P29990 2492-3391 limits assumed)": "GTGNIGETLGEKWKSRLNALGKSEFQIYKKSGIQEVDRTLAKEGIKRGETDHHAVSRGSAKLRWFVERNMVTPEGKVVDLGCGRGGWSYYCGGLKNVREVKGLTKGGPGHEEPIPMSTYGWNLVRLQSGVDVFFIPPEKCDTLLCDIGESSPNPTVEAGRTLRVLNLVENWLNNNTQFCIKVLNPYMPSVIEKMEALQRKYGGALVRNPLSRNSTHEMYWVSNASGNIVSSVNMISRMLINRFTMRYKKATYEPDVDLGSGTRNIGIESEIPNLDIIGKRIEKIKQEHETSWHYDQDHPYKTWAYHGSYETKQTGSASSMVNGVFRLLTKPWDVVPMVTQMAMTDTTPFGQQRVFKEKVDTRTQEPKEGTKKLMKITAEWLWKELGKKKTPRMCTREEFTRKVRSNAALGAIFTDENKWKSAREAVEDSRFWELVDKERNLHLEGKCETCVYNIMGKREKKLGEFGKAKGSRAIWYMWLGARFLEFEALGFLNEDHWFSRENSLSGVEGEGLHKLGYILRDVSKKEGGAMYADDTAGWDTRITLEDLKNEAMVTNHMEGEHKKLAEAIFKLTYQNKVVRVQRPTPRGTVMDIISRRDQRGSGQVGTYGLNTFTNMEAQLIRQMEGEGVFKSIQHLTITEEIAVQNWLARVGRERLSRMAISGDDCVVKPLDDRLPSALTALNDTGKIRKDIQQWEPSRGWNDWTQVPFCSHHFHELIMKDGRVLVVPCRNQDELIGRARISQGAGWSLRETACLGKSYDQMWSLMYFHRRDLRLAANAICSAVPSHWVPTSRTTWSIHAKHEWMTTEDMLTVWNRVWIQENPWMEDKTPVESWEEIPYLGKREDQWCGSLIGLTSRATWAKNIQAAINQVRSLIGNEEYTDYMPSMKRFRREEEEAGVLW", "test": "flavivirus cap methylation enzyme inhibition – biochemical, confirmation dose response, primary screen (AID 588689)", "assay_type": "functional"}, "SN12K1": {"test_system": "SN12K1", "test": "cells", "assay_type": "functional", "conditions": "Homo sapiens"}}, "note": "Activity calls are given as the source filed them.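 Wherever Ki is given: MARK3 affinity measured as one member of a kinome panel.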"}
{"smiles": "O=C(Cc1ccccc1)NC1(O)C(=O)c2ccccc2C1=O", "values": [{"measurement": "AC50", "setting": "[1]", "value": "5.55 µM (active)"}]}
{"smiles": "CCC1CC(NS(=O)(=O)C2CC2)CC1c1ncc2cnc3[nH]ccc3n12", "note": "(centres undefined)", "values": [{"measurement": "Ki", "setting": "[2]", "value": "0.158 µM (active)"}]}
{"smiles": "Cc1cc(C)c(S(=O)(=O)/N=C2\\C=C(Nc3ccc(C(=O)O)cc3)C(=O)c3ccccc32)c(C)c1", "values": [{"measurement": "AC50", "setting": "[3]", "value": "17.2 µM (active)"}, {"measurement": "AC50", "setting": "[4]", "value": "9.55 µM (active)"}, {"measurement": "EC50", "setting": "Streptococcus", "value": "2.6 µM (active)"}, {"measurement": "IC50", "setting": "[5]", "value": "1.68 µM (active)"}, {"measurement": "EC50", "setting": "[6]", "value": "6.73 µM (active)"}, {"measurement": "IC50", "setting": "Genome polyprotein", "value": "21.2 µM (active)"}]}
{"smiles": "COC(=O)c1nc(-c2ccc3c(n2)C(=O)C(=N)C(OC)=C3O)c(N)c(-c2ccc(OC)c(OC)c2O)c1C", "values": [{"measurement": "GI50", "setting": "SN12K1", "value": "0.537 µM (active)"}]}
